The results in this text go back to patent US6469028B1, “Synthesis and use of retinoid compounds having negative hormone and/or anatgonist activities” (Allergan, Inc., priority 1995, dated 2002).

Molecules are shown by their SMILES.

A short description of series [1]: Example 4: retinoid-induced hypertriglyceridemia (serum triglycerides). In kind it is in vivo, rats. How it is done:
Male Fischer rats (6-7 weeks old, n=5) were treated by intragastric intubation with corn oil (vehicle), AGN 191659, AGN 193109 or a combination of AGN 191659 and AGN 193109. AGN 191659 and AGN 193109 were given as fine suspensions in corn oil.
Serum was separated from blood by low speed centrifugation. Total serum triglycerides (triglycerides plus glycerol) were measured with a standard spectrophotometric endpoint assay available commercially as a kit and adapted to a 96-well plate format. Serum triglyceride levels are expressed as the mean±SD. Means were compared statistically by one-way analysis of variance followed by Dunnett's test if significant differences were found. Differences were considered significant at P<0.05.

Series [2] deals with T1, RAR-α and RXR-α with DR-5 RARE probe (Homo sapiens, UniProt P10276).
T1 construct: made in house; host or cells: reticulocyte lysate in vitro transcription-translation
T1 sequence (P10276 whole entry): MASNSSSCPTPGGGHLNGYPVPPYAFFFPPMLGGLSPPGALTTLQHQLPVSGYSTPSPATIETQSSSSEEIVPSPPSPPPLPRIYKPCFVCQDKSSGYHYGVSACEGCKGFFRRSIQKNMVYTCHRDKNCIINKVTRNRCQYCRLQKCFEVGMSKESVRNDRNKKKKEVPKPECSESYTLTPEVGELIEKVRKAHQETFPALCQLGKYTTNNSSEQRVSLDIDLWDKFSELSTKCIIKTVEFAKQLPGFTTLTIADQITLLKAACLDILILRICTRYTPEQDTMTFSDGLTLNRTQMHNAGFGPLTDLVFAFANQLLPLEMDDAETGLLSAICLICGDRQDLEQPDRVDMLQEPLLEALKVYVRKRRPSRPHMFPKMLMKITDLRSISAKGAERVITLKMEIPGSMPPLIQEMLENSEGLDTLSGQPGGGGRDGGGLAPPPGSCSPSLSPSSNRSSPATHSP
T1 sequence (P19793 whole entry partner): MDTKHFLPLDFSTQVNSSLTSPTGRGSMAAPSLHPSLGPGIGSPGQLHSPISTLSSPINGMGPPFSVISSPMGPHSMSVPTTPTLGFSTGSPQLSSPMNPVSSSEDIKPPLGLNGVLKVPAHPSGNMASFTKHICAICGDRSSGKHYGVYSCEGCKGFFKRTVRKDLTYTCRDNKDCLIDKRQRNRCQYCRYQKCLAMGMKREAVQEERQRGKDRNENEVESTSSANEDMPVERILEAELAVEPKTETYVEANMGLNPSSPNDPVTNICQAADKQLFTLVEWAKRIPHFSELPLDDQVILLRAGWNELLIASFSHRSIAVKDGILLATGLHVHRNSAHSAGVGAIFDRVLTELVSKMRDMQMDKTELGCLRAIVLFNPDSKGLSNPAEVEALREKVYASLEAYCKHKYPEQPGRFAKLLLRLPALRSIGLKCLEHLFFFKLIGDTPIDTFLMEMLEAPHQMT
The experiment in a line: Example 9: gel shift analysis. The conditions noted are these: prebound with AGN 193109 (10^−6 M). In kind it is biochemical. The text has this:
In vitro translated RAR-α was produced essentially as described under Example 8, except that ^35S-labeled methoinine was omitted. In vitro translated RXR-α was similarly produced using a pBluescript(II)(SK)-based vector containing the RXR-α cDNA described by Mangelsdorf, et al. in Nature 345:224-229 (1990) as the template for generating in vitro transcripts. […] The binding mixture was electrophoresed on a non-denaturing polyacrylamide gel and autoradiographed according to standard laboratory procedures. A single retarded species appearing on the autoradiograph that was common to all the lanes on the gel represented an undefined probe-binding factor present in the reticulocyte lysate. Only the RAR/RXR combination gave rise to a retinoid receptor-specific retarded species. Neither RAR alone nor RXR alone bound the probe to produce this shifted species.
Background: In EMSA bound probe runs differently from free probe, usually more slowly.

Consider `Cc1ccc(C2=CCC(C)(C)c3ccc(C#Cc4ccc(C(=O)O)cc4)cc32)cc1` [Compound 60, 4-[(5,6-dihydro-5,5-dimethyl-8-(4-methylphenyl)-2-naphthalenyl)ethynyl]benzoic acid], for which the “serum triglycerides versus control” value in series [1] (AGN 193109 with AGN 191659 at molar ratios of 1:1 and 5:1) is reported as “reduced serum triglycerides to levels that were not significantly different from control”. The “Serum Triglycerides” value in series [1] (group B: AGN 193109 19.6 mg/kg oral alone, male Fischer rats) was found to be 52.4 ± 6.3 mg/dL; in series [1] (group D: AGN 193109 3.9 mg/kg + AGN 191659 3.7 mg/kg oral), 55.7 ± 14.7 mg/dL; in series [1] (group E: AGN 193109 19.6 mg/kg + AGN 191659 3.7 mg/kg oral), 72.7 ± 8.9 mg/dL. Further, the “RAR/RXR retarded species on DR-5 RARE probe” value in series [2] is listed as “did not diminish this interaction”.
